Reference: patent US20110104177A1, “HISTONE DEACETYLASE INHIBITORS, COMBINATION THERAPIES AND METHODS OF USE” (THE JOHNS HOPKINS UNIVERSITY, priority 2006, published 2011)

Tests used:
[1] = target: T1, SIRT1 (Homo sapiens, UniProt Q96EB6); assay: Activity against the SIRT1 enzyme / SIRT1 deacetylase activity; assay type: biochemical
T1 sequence (Q96EB6 1-747): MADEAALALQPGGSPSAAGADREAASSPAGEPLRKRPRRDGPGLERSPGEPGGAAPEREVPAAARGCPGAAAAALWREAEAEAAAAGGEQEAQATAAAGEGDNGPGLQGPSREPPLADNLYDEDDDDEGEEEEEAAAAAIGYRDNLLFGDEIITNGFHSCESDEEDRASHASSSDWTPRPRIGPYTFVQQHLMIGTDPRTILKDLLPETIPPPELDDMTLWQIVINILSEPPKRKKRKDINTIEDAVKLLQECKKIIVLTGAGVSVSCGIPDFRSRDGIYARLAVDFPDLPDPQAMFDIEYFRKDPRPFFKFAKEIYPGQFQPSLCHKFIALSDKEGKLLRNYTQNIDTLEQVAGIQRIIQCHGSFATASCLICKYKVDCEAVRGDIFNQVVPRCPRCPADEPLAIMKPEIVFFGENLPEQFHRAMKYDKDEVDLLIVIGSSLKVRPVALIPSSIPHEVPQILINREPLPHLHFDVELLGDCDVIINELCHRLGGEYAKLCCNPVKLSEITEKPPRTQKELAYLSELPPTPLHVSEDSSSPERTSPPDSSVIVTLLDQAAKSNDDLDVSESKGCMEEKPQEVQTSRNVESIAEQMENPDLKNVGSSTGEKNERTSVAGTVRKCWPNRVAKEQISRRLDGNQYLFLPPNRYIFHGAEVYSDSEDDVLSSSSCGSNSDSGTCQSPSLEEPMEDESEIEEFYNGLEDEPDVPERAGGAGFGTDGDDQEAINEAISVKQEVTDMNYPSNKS

[2] = test system: SFRP1 and 2 genes in human breast cancer cells (line H231); assay: Re-activation of SFRP1 and 2 genes in breast cancer cells (line H231); assay type: cell-based
Experimental: This has been accomplished for the SFRP1 and 2 genes in human breast cancer cells (line H231) and for SFRP1 in human colon cancer cells (line RKO).
(§1) The results from experiments performed in RKO cells are shown in FIG. 7 which presents RT-PCR results for SFRP1. […] The expression seemed stronger than for 300 μM splitomycin (Spt) or 20 mM nicotinamide (Nia) when these latter two drugs were used alone or in combination, but not as strong as the expression induced by 1 μM of the DNA demethylating agent, deoxy-aza-cytidine (Aza). […] Experiments were carried out as essentially described above.

[3] = test system: SFRP1, SFRP2, MLH1, CRBP1, E-cadherin genes in RKO cells; assay: RT-PCR re-expression of silenced tumor suppressor genes in RKO cells; assay type: cell-based, human
Experimental: To inhibit any residual SIRT1 protein, remaining RNAi-expressing cells were treated with 700 μM SPT and control samples were treated with DMSO for 24 hours. […] RKO cells were also treated with 0.5 μM Aza (24 hours), and samples were analyzed as described in FIG. 1A; RT-PCR was performed with intron-spanning primers specific for the two genes. GAPDH was also analyzed as a control. […] Control samples in which no reverse transcriptase was added were analyzed separately, and all were negative for amplification of the indicated genes. […] The level of TSG re-expression induced by Aza treatment or SIRT1 inhibition as described in FIG. 4(A) was compared to levels of expression in HCT116 cells in which the TSGs are basally expressed.
(§2) Cell culture and retroviral infection. MDA-MB-231, MCF7, HCT116, SW480 RKO, and Phoenix cells (ATCC, Rockville, Md., United States) were cultured in Dulbecco's modified Eagle's medium supplemented with 10% fetal bovine serum and 1% penicillin/streptomycin (Invitrogen, Carlsbad, Calif., United States). Retroviral infection was performed using either single or multiple rounds of infection. Briefly, Phoenix cells were transfected with either pBabe, pBabe-SIRT1H363Y, pSUPERretro, pSUPERretro-SIRT1-RNAi-1-3 (NM_012238 positions 410, 589, and 1091; Oligo Engine, Seattle, Wash., United States) using Lipofectamine 2000 (Invitrogen). After 48 h of transfection, the medium containing retrovirus was collected, filtered, and supplemented with Polybrene prior to infection of target cells (MDA-MB-231, MCF7, or HCT116). Infected cells were either harvested 24-48 hours later or subjected to selection with 2-3 μg/ml puromycin for a week prior to harvest and analysis.
(§3) RNA and protein preparation and analysis. Total RNA was extracted (Invitrogen) according to the manufacturer's instructions and subjected to reverse transcription followed by both quantitative real-time and semi-quantitative polymerase chain reaction. For quantitative real-time analyses, the QuantiTect SYBR Green PCR kit (Qiagen, Valencia, Calif., United States) was used and the amplification conditions consisted of an initial 10-minutes denaturation step at 95° C., followed by 40 cycles of denaturation at 95° C. for 15 s and annealing and extension for 30 seconds and 60 seconds, respectively. A BioRad iCycler was used (BioRad, Hercules, Calif., United States), and for quantitation the comparative cycle threshold (Ct) method was used, normalizing the Ct values for the indicated gene to the Ct values of GAPDH relative to a control sample. For conventional PCR, at least two independent sets of intron-spanning primers were used for the analysis of multiple genes, such as CRBP1, (NM_002899), E-cadherin, (L34545), SFRP1, (BC036503), SFRP2, (BC008666), and Gata-4 (L34357). For Western blots, cells stably expressing RNAi constructs were harvested in 50 mM Tris-HCl, 1% NP-40, 0.25% sodium deoxycholate, 150 mM NaCl, 50 mM sodium fluoride, 1 mM dithiothreitol, 1 mM AEBSF, 1× Complete protease inhibitor cocktail (Roche, Basel, Switzerland). Protein concentrations were measured by BCA (Pierce Biotechnology, Rockford, Ill., United States). […] On the same blot, β-actin (Sigma, St. Louis, Mo., United States) was probed to ensure equal loading.
as §1

[4] = test system: SFRP1, SFRP2, E-cadherin, CRBP1 genes in MDA-MB-231 cells; assay: RT-PCR re-expression of silenced tumor suppressor genes in MDA-MB-231 cells; assay type: cell-based, human; settings: MDA-MB-231 cells; shRNA retroviral infection; RT-PCR
Experimental: The panels of FIG. 2 are as follows. […] MDA-MB-231 cells were treated with 15 mM NIA or 300 μM SPT for 21 hours, RNA was isolated, and RT-PCR was performed with intron-spanning primers specific for the indicated genes. Control samples in which no reverse transcriptase was added were analyzed separately, and all were negative for amplification of the indicated genes. […] MDA-MB-231 cells were treated with either 50 nM Aza (+), 100 μM SPT (+) or with both Aza and SPT (++), and 34 hours later, RT-PCR was performed for the indicated genes as described in FIG. 2(A). […] MDA-MB-231 cells were treated with either 0, 50, 100, or 120 μM SPT alone for 34 hours, or the treatment was followed by treatment with 300 nM TSA for 3 hours prior to RNA isolation and RT-PCR analysis. […] MDA-MB-231 cells were infected with low titers of virus for shRNA specific for SIRT1. Aza (100 nM) was added 24 hours prior to RNA isolation, and RT-PCR analysis was performed for the genes SFRP 1, SFRP2, and GAPDH as described in FIG. 2(A). […] As shown in the left panel, MDA-MB-231 cells were infected with a control (vec) or mutant SIRT1 virus (HY), and RT-PCR was performed as described in FIG. 2(A). MDA-MB-231 cells were infected with low titers of pBabe or pBabe-SIRT1H363Y retrovirus and subsequently treated with 100 nM Aza for 24 hours or with 300 nM TSA for 3 hours prior to harvest, and RT-PCR was performed.
as §2, §3

[5] = test system: SFRP1 and SFRP2 genes in MCF7 cells; assay: RT-PCR re-expression of silenced tumor suppressor genes in MCF7 cells; assay type: cell-based, human; settings: retroviral infection, RT-PCR
Experimental: as §2, §3

[6] = test system: E-cadherin and MLH1 protein in MDA-MB-231 and RKO cells; assay: Western blot of tumor suppressor protein re-expression; assay type: cell-based, human; settings: puromycin selection 3 days
Experimental: The panels in FIG. 1 are as follows. […] Retroviral expression vectors encoding SIRT1 cDNA that produce short hairpin loop RNA targeting either distinct regions of SIRT1 mRNA (RNAi-1, -2, or -3) or a control (ctrl) were used to infect MCF7. Western blot analysis for SIRT1 and β-actin was performed 48 hours after two rounds of infection. […] RNA was isolated from parallel samples analyzed in FIG. 1(A), and RT-PCR was performed with intron-spanning primers specific for the genes SFRP1 and SFRP2. GAPDH was also analyzed as a control. […] Control samples in which no reverse transcriptase was added were analyzed separately, and all were negative for amplification of the indicated genes. […]
RNA and protein preparation and analysis. Total RNA was extracted (Invitrogen) according to the manufacturer's instructions and subjected to reverse transcription followed by both quantitative real-time and semi-quantitative polymerase chain reaction. For quantitative real-time analyses, the QuantiTect SYBR Green PCR kit (Qiagen, Valencia, Calif., United States) was used and the amplification conditions consisted of an initial 10-minutes denaturation step at 95° C., followed by 40 cycles of denaturation at 95° C. for 15 s and annealing and extension for 30 seconds and 60 seconds, respectively. […] Protein concentrations were measured by BCA (Pierce Biotechnology, Rockford, Ill., United States). […]

[7] = test system: SFRP1, SFRP2, GATA4 promoter methylation in MDA-MB-231 cells; assay: Promoter DNA methylation by bisulfite sequencing and MSP; assay type: cell-based, human; settings: MDA-MB-231 cells stably infected
Text: The panels of FIG. 3 are as follows. […] Parallel samples analyzed in FIG. 1D were subjected to bisulfite sequencing of the SFRP1 promoter from MDA-MB-231 cells stably infected with control vector or RNAi-2 or RNAi-3 retrovirus. Open circles indicate unmethylated cytosines, and closed circles indicate methylated cytosines. Numbers at the bottom show the position of cytosines relative to the transcription start site, which is at position 0, and those with a minus sign (−) are upstream from this start site. The region sequenced encompasses the CpG island in which methylation status correlates with gene expression status. […] From left to right: (−) PCR Ctrl indicates H2O only; (−) BS ctrl indicates bisulfite-treated H20; (+) M ctrl indicates the cell line in which SFRP1 is partially methylated and SFRP2 and GATA4 are fully methylated; and (+) U ctrl indicates the Tera-2 cell line in which each gene is unmethylated. All remaining lanes are for MDA-MB-231. From left to right: Aza indicates 1 μM Aza (24 hours) treatment; Ctrl indicates empty vector infection; RNAi-2 indicates shRNA-2 infection alone; RNAi-3 indicates shRNA-3 infection alone; Aza indicates 1 μM Aza (24 hours treatment of control cells; Ctrl indicates empty vector infection+vehicle; RNAi-2 indicates shRNA-2 infection+5 mM NIA treatment; and RNAi-3 indicates shRNA-3 infection+5 mM NIA treatment.
MSP and bisulfite sequencing. […]

[8] = test system: SIRT1; assay: Western blot of SIRT1 protein after retroviral shRNA infection; assay type: cell-based, human
Experimental: as §2, §3

inhibition of SIRT1 deactylase activity [1] | Compound | transcriptional re-activation of SFRP1 and 2 genes [2] | SFRP1 expression compared with 1 μM deoxy-aza-cytidine (Aza) ([3]; RKO cells, RT-PCR) | SFRP1 expression compared with 300 μM splitomycin or 20 mM nicotinamide, alone or in combination ([3]; RKO cells, RT-PCR) | SFRP1 RT-PCR specific band ([3]; RKO cells, doses of 20 and 50 μM, 24 or 48 hours) | gene re-expression of SFRP1, SFRP2 and E-cadherin [4] | gene re-expression of SFRP1 and SFRP2 [5] | protein re-expression (E-cadherin, MLH1) by Western blot [6] | SFRP1 promoter methylation profile (bisulfite sequencing) [7] | reduction of SIRT1 protein (knockdown) ([8]; MCF7 cells, Western blot 48 h after two rounds of infection) | reduction of SIRT1 protein (knockdown) ([8]; MDA-MB-231 cells) | reduction of SIRT1 protein (knockdown) ([8]; RKO cells) | gene re-expression of CRB1 and E-cadherin ([3]; RKO cells stably expressing shRNA, treated with 700 μM SPT 24 hours, RT-PCR) | gene re-expression of SFRP1, SFRP2 and MLH1 ([3]; RKO cells, shRNA retroviral infection, RT-PCR)
potent inhibition | NC(=O)C1CCCCc2c1[nH]c1ccc(Cl)cc21 (centres unmarked) [Compound 6, 2-Chloro-5,6,7,8,9,10-hexahydro-cyclohepta[b]indole-6-carboxylic acid amide] | the same effects have been achieved | not as strong | stronger | produce the band at both time points |  |  |  |  |  |  |  |  | 
 | RNAi-3: shRNA targeting SIRT1 mRNA, sequence CATAGACACGCTGGAACAG, NM_012238 position 1091 |  |  |  |  | led to gene re-expression | led to gene re-expression | protein re-expression that corresponded with the gene reactivation | without changes in the methylation profile | greatest knockdown | very effective in reducing protein levels | SIRT1 protein reduction | leads to gene re-expression | leads to gene re-expression of SFRP1, SFRP2, and MLH1
